# Results taken from patent US6906065B2, “4-Amino-5-cyano-2-anilino-pyrimidine derivatives and their use as inhibitors of cell-cycle kinases” (AstraZeneca AB, priority 2000, dated 2005).
# Biological target: T1, CDK2/Cyclin E (Homo sapiens, UniProt P24941)
# T1 construct: The open reading frames of CDK2 and Cyclin E were isolated by reverse transcriptase-PCR; made in house; host or cells: Sf21 (Spodoptera frugiperda) insect cells, baculovirus co-infection, vector pVL1393
# Assay: in vitro kinase assay (Scintillation Proximity Assay), incorporation of [γ-33-P]-ATP into GST-Rb
# Format: biochemical
# Conditions: CDK2/Cyclin E partially-purified enzyme, GST-Rb substrate, 0.2 μM ATP, 60 minutes at room temperature; read-out: CDK2 inhibitory activity IC50
# Protocol: The compounds were tested in an in vitro kinase assay in 96 well format using Scintillation Proximity Assay (SPA—obtained from Amersham) for measuring incorporation of [γ-33-P]-Adenosine Triphosphate into a test substrate (GST-Retinoblastoma protein; GST-Rb). In each well was placed the compound to be tested (diluted in DMSO and water to correct concentrations) and in control wells either roscovitine as an inhibitor control or DMSO as a positive control. […]
# The plates were sealed with Topseal-S plate sealers, left for two hours then spun at 2500 rpm, 1124×g., for 5 minutes. The plates were read on a Topcount for 30 seconds per well. […]
# E.coli paste was resuspended in 10 ml/g of NETN buffer (50 mM Tris pH 7.5, 120 mM NaCl, 1 mM EDTA, 0.5% v/v NP-40, 1 mM PMSF, 1 ug/ml leupeptin, 1 ug/ml aprotinin and 1 ug/ml pepstatin) and sonicated for 2×45 seconds per 100 ml homogenate. […] The final product was analysed by Sodium Dodeca Sulfate (SDS) PAGE (Polyacrylamide gel) using 8-16% Tris-Glycine gels (Novex, San Diego, USA).
# The open reading frames of CDK2 and Cyclin E were isolated by reverse transcriptase-PCR using HeLa cell and activated T cell mRNA as a template and cloned into the insect expression vector pVL1393 (obtained from Invitrogen 1995 catalogue number: V1392-20). […]
row,IC50 [nM],SMILES
1,17,"CCCNS(=O)(=O)c1ccc(Nc2ncc(C#N)c(N)n2)cc1 [Example 23, 4-Amino-5-cyano-2-[4-(N-propylsulphamoyl)anilino]pyrimidine]"
2,33,"N#Cc1cnc(Nc2ccc(S(=O)(=O)NC3CCC3)cc2)nc1N [Example 21, 4-Amino-5-cyano-2-{4-[N-(cyclobutyl)sulphamoyl]anilino}pyrimidine]"
